Read-outs that look alike come from different tables or passages of the source.
Legend:
[1] = Doxycycline Monohydrate Compatibility Test; format: physicochemical
Procedure: (§1) A similar compatibility study was conducted for Doxycycline Hyclate and Doxycycline Monohydrate.
(§2) Different compositions of hydrophilic and hydrophobic solvents containing Doxycycline Hyclate (Set I and Set II) and Doxycycline Monohydrate (Set III) were prepared by weighing the antibiotic in a glass vial and shaking overnight with each solvent investigated.
A similar compatibility test was performed on another form of Doxycycline—Doxycycline Monohydrate.

[2] = Procedure: The ratio between MCH and the tested excipient is detailed below. Visual inspection was the major criterion for indication of compatibility. The color of intact MCH suspension is pale yellow; and any change of color (e.g., to dark orange, red, green, brown and black) indicates oxidation or degradation.
Other than hydrogenated castor oil, beeswax, paraffin and hard fat, the aforesaid items listed are oily emollients.
Additives were tested for compatibility with MCH. […] In parallel, antioxidants were added to the MCH suspensions comprising water.

[3] = Doxycycline Hyclate Compatibility Test; format: physicochemical
Procedure: as §1, §2
Group II included Doxycycline Hyclate mixed with various vehicles with addition of antioxidants like alpha tocopherol, butylated hydroxytoluene (BHT), and ascorbic acid.

[4] = Doxycycline Monohydrate Compatibility Test; format: physicochemical; remark: listed apart in the source
[5] = in vitro; cited from earlier work
[6] = cited from earlier work
[7] = mixtures stored at 25° C., 40° C. and 50° C. for two weeks
[8] = tested after the storage for up to 3 weeks

CCO [Ethanol]
Compatibility with Doxycycline Monohydrate [1, 7]: oxidized | Compatibility with Doxycycline Monohydrate [1, 8]: No | Compatibility with MCH ([2]; hydrophilic solvents, MCH:excipient 1:250, 25° C. and 40° C., maximum sixty days): incompatible | Compatibility with Minocycline HCl (observations) ([2]; on dissolution / storage): changed their color from yellow to orange | Compatibility with Minocycline HCl [2, 8]: No | Compatibility with Doxycycline Hyclate [3, 7]: stable | Compatibility with Doxycycline Hyclate [3, 8]: Yes | Compatibility Results ([4]; Mixtures of 1.04% w/w of Doxycycline Monohydrate stored at 25° C., 40° C., and 50° C. for two weeks): Non compatible | Visual inspection after the storage at 25° C. ([4]; Mixtures of 1.04% w/w of Doxycycline Monohydrate, 25° C., two weeks): Brown | Visual inspection after the storage at 40° C. ([4]; Mixtures of 1.04% w/w of Doxycycline Monohydrate, 40° C., two weeks): Brown | Visual inspection after the storage at 50° C. ([4]; Mixtures of 1.04% w/w of Doxycycline Monohydrate, 50° C., two weeks): Black | Visual inspection at T-0 ([4]; Mixtures of 1.04% w/w of Doxycycline Monohydrate, T-0): bright yellow

CN(C)c1ccc(O)c2c1C[C@H]1C[C@H]3[C@H](N(C)C)C(O)=C(C(N)=O)C(=O)[C@@]3(O)C(O)=C1C2=O [minocycline]
Skin delivery of minocycline on topical administration [5]: appreciable amounts of the drug to its target site of action (the skin)

Doxycycline hyclate
Lipid solubility [6]: high degree of lipid solubility | Solubility ([6]; in solutions of alkali hydroxides and carbonates): soluble | Solubility ([6]; in water): soluble

— patent publication US10849847B2, “Compositions and methods for treating rosacea and acne” (Foamix Pharmaceuticals Ltd., priority 2016, dated 2020)
